Measured values as given in patent US8691218B2, “Vermin extermination using lysozyme, salt or biological fragment thereof, or lysozyme-related peptide as an egg recognition pheromone” (National University Corporation Okayama University, priority 2007, dated 2014).

System: Reticulitermes speratus workers (worker termites)
Assay: egg recognition activity: conveyance of coated mimetic eggs (glass beads) into the egg mass in a petri dish
Type: in vivo
Details: lysozyme samples tested on termites
Method: Egg recognition activities of a termite egg extract, lysozyme purified from the termite egg extract, a termite egg extract degraded by proteinase, egg white lysozyme, cellulase, a mixture of egg white lysozyme and cellulase, and 30% glycerin aqueous solution as a control were investigated by using Reticulitermes speratus workers (worker termites).
Each test samples was prepared as follows.
800 μL of ultrapure water was added to 400 mg of Reticulitermes speratus eggs in an Eppendorf tube, and homogenized, and subjected to ultrasonic treatment for 5 minutes, and centrifugation was performed at 15,000 rpm for 30 minutes. The supernatant was lyophilized, and 5.0 mg of the lyophilized powder was dissolved in 100 μL of 30% glycerin aqueous solution (termite egg extract). The termite egg extract prepared in the same manner as described above was purified by BioRex 70 (BioRad Laboratories, CA, USA) cation-exchange resin, and further, lysozyme fractions were isolated by Q-1 column chromatography (BioRad Laboratories, CA, USA) and Methyl HIC column chromatography (BioRad Laboratories, CA, USA), and 1.0 mg of lyophilized powder thereof was dissolved in 20 μL of 30% glycerin aqueous solution (lysozyme isolated from termite egg extract). […]

With “lysozyme derived from chicken egg white: egg white lysozyme (SIGMA) dissolved in 30% glycerin aqueous solution” the “egg recognition activity of termites” value was “high activity”.
